Measurements published in ChEMBL document CHEMBL4387706, “Discovery of Novel Spiroindoline Derivatives as Selective Tankyrase Inhibitors” (J Med Chem, 2019).
Values after ≈ are worked out from the molar mass of the structure shown.

Columns and labels:
[1] = Half life in Sprague-Dawley rat at 1 mg/kg, iv; type: ADME, organism-based; conditions: in vivo
[2] = AUC (infinity) in Sprague-Dawley rat at 1 mg/kg, iv; type: ADME, organism-based; design: dose 1 mg/kg, route intravenous, time infinity; conditions: in vivo
[3] = target: Poly [ADP-ribose] polymerase 1 (Homo sapiens, UniProt P09874)
Description: Inhibition of recombinant human PARP1 expressed in Escherichia coli assessed as reduction in auto-PARylation using histone as substrate measured after 45 mins in presence of biotinylated-NAD+ by ELISA

[4] = Protein binding in human serum assessed as unbound fraction at 1 uM measured after 24 hrs by LC-MS/MS analysis; type: ADME, cell-free
[5] = Initial plasma concentration in Sprague-Dawley rat at 1 mg/kg, iv; type: ADME, organism-based
[6] = AUC (infinity) in Sprague-Dawley rat at 3 mg/kg, po; type: ADME, organism-based; design: dose 3 mg/kg, time infinity, route oral; conditions: in vivo
[7] = Total clearance in Sprague-Dawley rat at 1 mg/kg, iv; type: ADME, organism-based; conditions: in vivo
[8] = Protein binding in mouse serum assessed as unbound fraction at 1 uM measured after 24 hrs by LC-MS/MS analysis; type: ADME, cell-free
COLO 320DM [9] = experiment: cells; conditions: Homo sapiens, 96 h
Description: Antiproliferative activity against human COLO320DM cells assessed as inhibition of cell growth measured after 4 days by CellTiter-Glo assay

in vitro [10] = conditions: human, liver microsomes
Description: Stability in human liver microsomes assessed as parent compound remaining at 1 uM measured after 30 mins in presence of NADPH by LC-MS/MS analysis

[11] = target: T1, Protein mono-ADP-ribosyltransferase PARP10 (Homo sapiens, UniProt Q53GL7); experiment: Inhibition of human recombinant N-terminal TEV-cleavgae site-fused-FLAG/Polyhis-tagged PARP10 […] expressed in Escherichia coli assessed as reduction in auto-PARylation using histone as substrate measured after 45 mins in presence of biotinylated-NAD+ by ELISA
T1 sequence (Q53GL7 whole entry): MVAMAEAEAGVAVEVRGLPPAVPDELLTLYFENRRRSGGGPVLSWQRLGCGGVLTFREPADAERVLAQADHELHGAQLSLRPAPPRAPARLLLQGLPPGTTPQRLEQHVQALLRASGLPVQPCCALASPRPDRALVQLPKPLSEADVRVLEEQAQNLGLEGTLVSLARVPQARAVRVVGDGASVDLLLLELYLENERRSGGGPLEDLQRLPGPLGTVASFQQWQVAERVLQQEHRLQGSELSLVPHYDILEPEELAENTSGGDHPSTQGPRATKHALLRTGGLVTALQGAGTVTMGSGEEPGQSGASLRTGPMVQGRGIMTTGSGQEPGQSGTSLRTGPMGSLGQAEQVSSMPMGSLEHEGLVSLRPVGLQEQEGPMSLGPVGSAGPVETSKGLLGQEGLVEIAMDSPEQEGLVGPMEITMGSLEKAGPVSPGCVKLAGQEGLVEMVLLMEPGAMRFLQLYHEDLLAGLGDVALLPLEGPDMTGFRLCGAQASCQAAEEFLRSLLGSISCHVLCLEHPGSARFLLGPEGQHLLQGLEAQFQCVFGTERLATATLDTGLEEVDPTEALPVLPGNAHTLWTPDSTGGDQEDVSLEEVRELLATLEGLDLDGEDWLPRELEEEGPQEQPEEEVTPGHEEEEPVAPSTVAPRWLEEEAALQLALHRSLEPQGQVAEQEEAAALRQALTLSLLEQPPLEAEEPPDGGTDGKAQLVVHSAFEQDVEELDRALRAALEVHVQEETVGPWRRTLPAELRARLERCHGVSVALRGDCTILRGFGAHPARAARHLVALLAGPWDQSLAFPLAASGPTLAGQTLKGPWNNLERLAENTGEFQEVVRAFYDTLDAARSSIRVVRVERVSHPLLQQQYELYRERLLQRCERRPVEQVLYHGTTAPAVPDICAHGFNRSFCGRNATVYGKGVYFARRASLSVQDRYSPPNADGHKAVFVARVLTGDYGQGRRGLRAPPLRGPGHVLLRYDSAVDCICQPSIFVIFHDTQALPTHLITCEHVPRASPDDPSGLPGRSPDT

[12] = Cmax in Sprague-Dawley rat at 3 mg/kg, po; type: ADME, organism-based; design: dose 3 mg/kg, route oral; conditions: in vivo
in vitro [13] = conditions: mouse, liver microsomes
Description: Stability in mouse liver microsomes assessed as parent compound remaining at 1 uM measured after 30 mins in presence of NADPH by LC-MS/MS analysis

[14] = Oral bioavailability in Sprague-Dawley rat at 3 mg/kg; type: ADME, organism-based; conditions: in vivo
COLO 320DM [15] = experiment: Antiproliferative activity against human COLO320DM cells assessed inhibition of cell growth measured after 5 days by MTT assay; type: functional; conditions: 120 h
[16] = Tmax in Sprague-Dawley rat at 3 mg/kg, po; type: ADME, organism-based; conditions: in vivo
[17] = target: Poly [ADP-ribose] polymerase 2 (Homo sapiens, UniProt Q9UGN5); experiment: Inhibition of human recombinant N-terminal GST-tagged PARP2 (2 to 583 residues) expressed in baculovirus infected Sf9 cells assessed as reduction in auto-PARylation using histone as substrate measured after 45 mins in presence of biotinylated-NAD+ by ELISA
physchem = conditions: phosphate buffer, pH 7.4
[18] = Volume of distribution at steady state in Sprague-Dawley rat at 1 mg/kg, iv; type: ADME, organism-based; conditions: in vivo, read-out: Vdss
[19] = target: Prostaglandin G/H synthase 2 (Homo sapiens) (UniProt P35354); experiment: Inhibition of human recombinant COX2 expressed in Sf21 cells at 10 uM using arachidonic acid as substrate preincubated for 15 mins followed by substrate addition and measured after 3 mins by ampliflu red dye-based spectrofluorimetric method relative to control
[20] = Half life in ICR mouse at 50 mg/kg, ip; type: ADME, organism-based; conditions: in vivo
[21] = target: Kappa-type opioid receptor (Homo sapiens) (UniProt P41145); experiment: Displacement of [3H]diprenorphine from full-length recombinant human KOR expressed in HEK293 cells at 10 uM measured after 60 mins by scintillation counting method relative to control; type: cell-based
[22] = target: Alpha-2A adrenergic receptor (Homo sapiens) (UniProt P08913); experiment: Displacement of [3H]rauwolscine from full-length recombinant human alpha2A receptor expressed in CHOK1 cells at 10 uM measured after 60 mins by scintillation counting method relative to control; type: cell-based
COLO 320DM [23] = experiment: Antitumor activity against human COLO320DM cells xenografted in mouse assessed as tumor growth inhibition at 300 mg/kg, ip administered twice daily for 11 days relative to control; type: functional; conditions: 264 h, read-out: TGI
[24] = target: Histamine H1 receptor (Homo sapiens) (UniProt P35367); experiment: Displacement of [3H]pyrilamine from full-length recombinant human H1 receptor expressed in CHOK1 cells at 10 uM measured after 180 mins by scintillation counting method relative to control; type: cell-based
[25] = target: Prostaglandin G/H synthase 1 (Homo sapiens) (UniProt P23219); experiment: Inhibition of human recombinant COX1 expressed in baculovirus infected Sf9 cells at 10 uM using arachidonic acid as substrate preincubated for 15 mins followed by substrate addition and measured after 3 mins by ampliflu red dye-based spectrofluorimetric method relative to control
[26] = target: Sodium-dependent dopamine transporter (Homo sapiens) (UniProt Q01959); experiment: Displacement of [125I]RTI-55 from full-length recombinant human DAT receptor expressed in CHOS cells at 10 uM measured after 3 hrs by scintillation counting method relative to control; type: cell-based
[27] = target: Sodium-dependent noradrenaline transporter (Homo sapiens) (UniProt P23975); experiment: Displacement of [125I]RTI-55 from full-length recombinant human NET receptor expressed in MDCK cells at 10 uM measured after 3 hrs by scintillation counting method relative to control; type: cell-based
Sodium-dependent noradrenaline transporter (Homo sapiens), sequence (P23975 whole entry): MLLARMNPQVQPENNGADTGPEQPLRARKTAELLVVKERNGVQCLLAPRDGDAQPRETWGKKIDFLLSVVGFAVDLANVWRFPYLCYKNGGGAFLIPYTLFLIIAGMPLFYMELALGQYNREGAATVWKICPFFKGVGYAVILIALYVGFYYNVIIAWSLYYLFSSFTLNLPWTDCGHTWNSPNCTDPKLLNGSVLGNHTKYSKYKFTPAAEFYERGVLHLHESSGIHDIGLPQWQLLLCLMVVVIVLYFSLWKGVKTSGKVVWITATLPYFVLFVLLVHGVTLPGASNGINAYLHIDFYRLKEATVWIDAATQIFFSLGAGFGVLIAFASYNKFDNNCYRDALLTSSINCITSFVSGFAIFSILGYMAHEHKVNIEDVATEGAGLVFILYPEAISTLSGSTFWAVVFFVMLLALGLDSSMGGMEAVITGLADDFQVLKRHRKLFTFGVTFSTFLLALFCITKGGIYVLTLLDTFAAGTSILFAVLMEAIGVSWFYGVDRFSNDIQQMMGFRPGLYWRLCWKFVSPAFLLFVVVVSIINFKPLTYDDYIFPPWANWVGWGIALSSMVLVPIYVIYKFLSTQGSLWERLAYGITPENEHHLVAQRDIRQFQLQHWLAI

Poly [ADP-ribose] polymerase 2, sequence (Q9UGN5 whole entry, the tested form may be a part): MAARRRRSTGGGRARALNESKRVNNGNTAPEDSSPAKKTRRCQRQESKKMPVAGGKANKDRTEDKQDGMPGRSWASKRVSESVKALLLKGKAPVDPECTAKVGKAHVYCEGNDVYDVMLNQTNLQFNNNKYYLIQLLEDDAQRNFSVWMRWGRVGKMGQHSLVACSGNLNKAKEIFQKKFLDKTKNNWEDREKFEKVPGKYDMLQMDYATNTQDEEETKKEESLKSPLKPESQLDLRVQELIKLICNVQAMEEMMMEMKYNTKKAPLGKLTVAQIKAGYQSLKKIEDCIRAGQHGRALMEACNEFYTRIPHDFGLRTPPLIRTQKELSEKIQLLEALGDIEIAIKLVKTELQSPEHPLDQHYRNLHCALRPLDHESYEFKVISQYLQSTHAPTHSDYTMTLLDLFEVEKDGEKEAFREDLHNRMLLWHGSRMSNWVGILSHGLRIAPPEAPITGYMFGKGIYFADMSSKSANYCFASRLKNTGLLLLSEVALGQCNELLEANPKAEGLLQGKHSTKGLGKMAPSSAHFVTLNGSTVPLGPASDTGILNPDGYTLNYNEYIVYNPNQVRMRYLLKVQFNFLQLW
Poly [ADP-ribose] polymerase 1, sequence (P09874 whole entry): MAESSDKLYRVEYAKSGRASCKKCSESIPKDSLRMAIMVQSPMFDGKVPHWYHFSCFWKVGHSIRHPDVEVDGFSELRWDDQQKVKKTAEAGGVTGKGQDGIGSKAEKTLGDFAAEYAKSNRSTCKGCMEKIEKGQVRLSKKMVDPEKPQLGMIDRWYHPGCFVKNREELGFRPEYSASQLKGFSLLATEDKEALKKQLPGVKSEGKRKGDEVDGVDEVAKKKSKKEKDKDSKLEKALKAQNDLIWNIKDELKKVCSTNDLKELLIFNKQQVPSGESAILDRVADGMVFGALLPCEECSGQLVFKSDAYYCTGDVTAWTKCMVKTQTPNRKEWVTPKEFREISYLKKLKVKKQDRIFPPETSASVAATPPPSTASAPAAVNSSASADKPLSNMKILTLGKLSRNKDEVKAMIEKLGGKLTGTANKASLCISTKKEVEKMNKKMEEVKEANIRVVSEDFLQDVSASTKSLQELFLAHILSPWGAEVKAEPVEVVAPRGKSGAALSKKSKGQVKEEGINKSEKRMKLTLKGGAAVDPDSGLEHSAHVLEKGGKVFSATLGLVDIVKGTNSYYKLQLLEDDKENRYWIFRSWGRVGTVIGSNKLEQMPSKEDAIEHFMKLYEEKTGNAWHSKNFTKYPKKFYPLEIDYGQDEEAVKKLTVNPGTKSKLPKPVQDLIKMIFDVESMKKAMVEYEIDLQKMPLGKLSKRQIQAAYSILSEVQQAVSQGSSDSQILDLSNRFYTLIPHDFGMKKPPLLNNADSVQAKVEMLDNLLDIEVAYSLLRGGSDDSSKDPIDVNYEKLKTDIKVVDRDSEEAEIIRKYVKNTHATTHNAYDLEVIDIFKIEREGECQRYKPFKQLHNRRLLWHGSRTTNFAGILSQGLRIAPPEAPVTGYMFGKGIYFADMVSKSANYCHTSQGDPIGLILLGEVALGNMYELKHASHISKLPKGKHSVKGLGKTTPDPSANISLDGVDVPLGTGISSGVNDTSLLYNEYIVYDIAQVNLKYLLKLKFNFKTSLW
Prostaglandin G/H synthase 2 (Homo sapiens), sequence (P35354 whole entry): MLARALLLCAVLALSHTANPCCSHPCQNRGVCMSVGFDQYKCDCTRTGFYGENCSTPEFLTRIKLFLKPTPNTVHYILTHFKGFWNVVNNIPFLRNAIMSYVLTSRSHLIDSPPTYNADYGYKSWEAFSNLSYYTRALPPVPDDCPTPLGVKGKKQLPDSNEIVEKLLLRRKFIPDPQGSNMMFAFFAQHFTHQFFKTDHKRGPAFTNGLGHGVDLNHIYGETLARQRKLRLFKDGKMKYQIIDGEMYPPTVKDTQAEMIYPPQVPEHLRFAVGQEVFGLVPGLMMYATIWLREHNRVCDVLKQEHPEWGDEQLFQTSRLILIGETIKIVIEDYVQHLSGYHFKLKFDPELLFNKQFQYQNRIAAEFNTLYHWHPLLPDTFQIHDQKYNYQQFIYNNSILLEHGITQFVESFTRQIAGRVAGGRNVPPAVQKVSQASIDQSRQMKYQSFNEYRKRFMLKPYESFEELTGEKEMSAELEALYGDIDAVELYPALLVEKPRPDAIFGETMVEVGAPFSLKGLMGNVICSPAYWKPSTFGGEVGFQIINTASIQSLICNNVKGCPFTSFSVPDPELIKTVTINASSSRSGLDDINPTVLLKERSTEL
Kappa-type opioid receptor (Homo sapiens), sequence (P41145 whole entry): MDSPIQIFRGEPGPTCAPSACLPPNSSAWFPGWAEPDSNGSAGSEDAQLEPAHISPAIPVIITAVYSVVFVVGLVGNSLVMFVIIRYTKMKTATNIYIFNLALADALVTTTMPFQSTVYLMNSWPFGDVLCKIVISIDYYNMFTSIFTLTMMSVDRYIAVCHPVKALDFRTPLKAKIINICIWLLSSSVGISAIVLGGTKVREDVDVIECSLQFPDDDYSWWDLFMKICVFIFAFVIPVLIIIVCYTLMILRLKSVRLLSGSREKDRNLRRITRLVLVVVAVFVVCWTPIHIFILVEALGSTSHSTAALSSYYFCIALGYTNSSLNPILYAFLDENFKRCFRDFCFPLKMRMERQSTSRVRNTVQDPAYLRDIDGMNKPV
Sodium-dependent dopamine transporter (Homo sapiens), sequence (Q01959 whole entry): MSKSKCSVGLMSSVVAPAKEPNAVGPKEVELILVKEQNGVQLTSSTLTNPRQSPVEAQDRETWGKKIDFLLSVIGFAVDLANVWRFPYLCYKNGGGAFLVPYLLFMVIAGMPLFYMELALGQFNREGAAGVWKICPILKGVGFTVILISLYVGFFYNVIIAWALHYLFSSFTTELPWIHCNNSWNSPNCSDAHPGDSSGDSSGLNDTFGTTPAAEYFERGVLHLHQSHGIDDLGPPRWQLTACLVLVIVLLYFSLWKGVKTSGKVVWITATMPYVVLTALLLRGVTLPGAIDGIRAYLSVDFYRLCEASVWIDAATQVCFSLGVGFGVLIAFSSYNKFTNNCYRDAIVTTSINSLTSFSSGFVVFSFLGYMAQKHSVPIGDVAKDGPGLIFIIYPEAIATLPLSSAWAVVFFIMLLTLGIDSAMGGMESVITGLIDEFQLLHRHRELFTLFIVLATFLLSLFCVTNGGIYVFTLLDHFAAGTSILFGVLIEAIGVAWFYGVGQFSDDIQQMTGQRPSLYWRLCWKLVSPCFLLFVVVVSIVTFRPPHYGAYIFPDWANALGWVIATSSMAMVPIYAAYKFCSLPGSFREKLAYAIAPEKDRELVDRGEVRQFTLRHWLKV
Histamine H1 receptor (Homo sapiens), sequence (P35367 whole entry): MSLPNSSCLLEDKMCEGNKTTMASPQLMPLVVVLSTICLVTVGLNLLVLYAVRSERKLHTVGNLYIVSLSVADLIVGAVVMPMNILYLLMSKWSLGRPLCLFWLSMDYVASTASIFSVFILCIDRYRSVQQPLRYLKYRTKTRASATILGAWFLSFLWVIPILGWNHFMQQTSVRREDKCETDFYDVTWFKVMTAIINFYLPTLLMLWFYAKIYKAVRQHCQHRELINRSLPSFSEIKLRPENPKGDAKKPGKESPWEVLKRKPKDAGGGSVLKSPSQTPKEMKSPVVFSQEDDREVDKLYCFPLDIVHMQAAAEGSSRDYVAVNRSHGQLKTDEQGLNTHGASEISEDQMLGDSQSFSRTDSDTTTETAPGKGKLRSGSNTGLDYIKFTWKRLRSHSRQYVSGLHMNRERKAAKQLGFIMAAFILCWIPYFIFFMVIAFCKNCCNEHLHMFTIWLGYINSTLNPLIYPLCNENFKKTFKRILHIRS
Alpha-2A adrenergic receptor (Homo sapiens), sequence (P08913 whole entry): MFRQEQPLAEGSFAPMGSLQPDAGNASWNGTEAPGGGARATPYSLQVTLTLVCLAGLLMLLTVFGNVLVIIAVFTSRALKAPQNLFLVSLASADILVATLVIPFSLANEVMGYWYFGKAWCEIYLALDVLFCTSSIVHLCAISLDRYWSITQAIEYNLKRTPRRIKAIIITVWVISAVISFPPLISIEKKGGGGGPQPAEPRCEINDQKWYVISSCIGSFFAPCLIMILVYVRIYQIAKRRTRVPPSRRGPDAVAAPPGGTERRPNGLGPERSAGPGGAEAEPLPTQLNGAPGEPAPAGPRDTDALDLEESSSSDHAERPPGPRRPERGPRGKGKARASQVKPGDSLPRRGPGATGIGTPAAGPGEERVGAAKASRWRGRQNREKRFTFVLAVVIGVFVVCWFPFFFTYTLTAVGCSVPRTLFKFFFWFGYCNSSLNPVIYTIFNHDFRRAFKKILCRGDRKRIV

| Compound | half-life [1] [h] | AUC(0-inf) [2] [µM·h] | IC50 [3] [µM] | fraction unbound at 24 h, 1 µM [4] | C0 [5] [nM] | AUC(0-inf) [6] [µM·h] | clearance [7] [mL/min/kg] | fraction unbound at 24 h, 1 µM [8] | GI50 (COLO 320DM [9]) [µM] | remaining at 0.5 h, 1 µM (in vitro [10]) [%] | IC50 [11] [µM] | Cmax [12] [nM] | remaining at 0.5 h, 1 µM (in vitro [13]) [%] | bioavailability [14] [%] | Tmax [16] [h] | IC50 [17] [µM] | Vd [18] [L/kg] | also measured |
| --- | --- | --- | --- | --- | --- | --- | --- | --- | --- | --- | --- | --- | --- | --- | --- | --- | --- | --- |
| COc1ccccc1N1CCN(c2nc3c(c(=O)[nH]2)CCCC3)CC1 | 13 | 0.72 | 20 to 100 | 0.043 | 1000 | 1.27 | 68 | 0.029 | 3.2 | 84.1 | 10.2 | 120 | 0 | 59.7 | 0.5 | 2.23 | 58.9 | GI50 (COLO 320DM [15]): 1.82 µM; solubility at 1 h, 200 µM (physchem): 10 µg/mL (≈ 29.4 µM) |
| O=c1[nH]c(N2CCC3(CC2)CN(CCO)c2cc(F)cc(F)c23)nc2c1CCCC2 | 3.5 | 4.42 | 20 to 100 | 0.004 | 9840 | 7.92 | 9 | 0.015 | 1.6 | 5.9 | 19.8 | 2280 | 18.3 | 59.8 | 0.25 | 2.72 | 0.59 | inhibition [19]: > 20%; half-life [20]: 2.8 h; inhibition [21]: > 20%; inhibition [22]: > 20%; inhibition in vivo at 300 mg/kg (COLO 320DM [23]): 51.9%; inhibition [24]: > 20%; inhibition [25]: > 20%; inhibition [26]: > 20%; inhibition [27]: > 20% |
